Assay results as given in ChEMBL document CHEMBL4665854, “Backbone Cyclization Turns a Venom Peptide into a Stable and Equipotent Ligand at Both Muscle and Neuronal Nicotinic Receptors” (J Med Chem, 2020).
pIC50: −log10 of the molar value. The source made the active and inactive calls. The rule behind the calls is not given here. Positions of bridges follow the written chain, without caps; N, C: chain ends. Residues, ends and D or L forms follow the SMILES beside them.

Tests used:
[1] = Half life in human serum at 30 uM by LC-MS analysis; assay type: ADME, cell-free
[2] = tested on: Phrenic nerve-diaphragm muscle; assay: Reduction in fading of train-of four repetitive stimulation pattern in Swiss mouse isolated phrenic nerve hemidiaphragm muscle preparation at 20 nM; assay type: functional, tissue-based
Danio rerio [3] = assay: Induction of paralysis in adult Zebrafish assessed as induction of rapid flaccid skeletal muscle paralysis dosed via injection measured after 10 mins; assay type: functional, organism-based
[4] = tested on: Phrenic nerve-diaphragm muscle; assay: Inhibition of muscle contraction in Swiss mouse isolated phrenic nerve hemidiaphragm muscle preparation assessed as reduction of 0.1 Hz stimulation-induced isometric twitch force incubated for 20 to 25 mins; assay type: functional, tissue-based
[5] = target: Neuronal acetylcholine receptor; alpha4/beta4 (Rattus norvegicus) (UniProt P09483+P12392); assay: Inhibition of rat alpha4beta4 expressed in Xenopus laevis oocytes assessed as acetylcholine-induced channel current response at 10 uM at -70 mV holding potential by two-electrode voltage-clamp assay relative to control; assay type: cell-based; design: scale not given: the % may be the effect or the level left; details: Oocyte
[6] = target: T1, Neuronal acetylcholine receptor; alpha3/beta2 (Rattus norvegicus) (UniProt P04757+P12390); assay: Competitive inhibition of alpha-conotoxin MII binding to rat alpha3beta2 expressed in Xenopus laevis oocytes at 100 nM; assay type: cell-based; details: Oocyte
[7] = tested on: Phrenic nerve-diaphragm muscle; assay: (§1) Inhibition of muscle contraction in Swiss mouse isolated phrenic nerve hemidiaphragm muscle preparation assessed as reduction of peak amplitude of 0.1 Hz stimulation-induced nerve contraction at 16 nM incubated for 30 mins followed addition of 10 uM addition of 3,4-DAP for 27 mins by relative to control; assay type: functional, tissue-based; details: time 57.0 min
[8] = target: Nicotinic acetylcholine receptor alpha6/alpha3/beta2/beta3 (Rattus norvegicus, UniProt P04757+P12390+P12391+P43143); assay: Inhibition of rat alpha6alpha3beta2beta3 expressed in Xenopus laevis oocytes assessed as inhibition of acetylcholine-induced channel current response at -70 mV holding potential by two-electrode voltage-clamp assay relative to control; assay type: cell-based, Oocyte
[9] = target: Neuronal acetylcholine receptor; alpha3/beta2 (Rattus norvegicus, UniProt P04757+P12390); assay: Inhibition of rat alpha3beta2 expressed in Xenopus laevis oocytes assessed as inhibition of acetylcholine-induced channel current response at -70 mV holding potential by two-electrode voltage-clamp assay; assay type: cell-based, Oocyte
Neuronal acetylcholine receptor; alpha3/beta2, sequence (P04757 whole entry): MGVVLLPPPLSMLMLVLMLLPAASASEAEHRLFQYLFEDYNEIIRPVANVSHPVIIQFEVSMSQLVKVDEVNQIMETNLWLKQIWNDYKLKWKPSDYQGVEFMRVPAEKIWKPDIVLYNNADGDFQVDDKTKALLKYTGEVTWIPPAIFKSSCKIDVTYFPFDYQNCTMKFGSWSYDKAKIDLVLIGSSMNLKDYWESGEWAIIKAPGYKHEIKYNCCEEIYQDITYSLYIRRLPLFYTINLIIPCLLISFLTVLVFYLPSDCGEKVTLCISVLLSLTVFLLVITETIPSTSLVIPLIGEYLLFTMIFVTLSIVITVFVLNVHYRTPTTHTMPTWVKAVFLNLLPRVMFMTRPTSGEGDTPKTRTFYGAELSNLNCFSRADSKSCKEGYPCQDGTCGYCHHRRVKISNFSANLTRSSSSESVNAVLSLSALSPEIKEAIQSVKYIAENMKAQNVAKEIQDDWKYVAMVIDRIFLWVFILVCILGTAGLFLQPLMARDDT
Neuronal acetylcholine receptor; alpha3/beta2, sequence (P12390 whole entry): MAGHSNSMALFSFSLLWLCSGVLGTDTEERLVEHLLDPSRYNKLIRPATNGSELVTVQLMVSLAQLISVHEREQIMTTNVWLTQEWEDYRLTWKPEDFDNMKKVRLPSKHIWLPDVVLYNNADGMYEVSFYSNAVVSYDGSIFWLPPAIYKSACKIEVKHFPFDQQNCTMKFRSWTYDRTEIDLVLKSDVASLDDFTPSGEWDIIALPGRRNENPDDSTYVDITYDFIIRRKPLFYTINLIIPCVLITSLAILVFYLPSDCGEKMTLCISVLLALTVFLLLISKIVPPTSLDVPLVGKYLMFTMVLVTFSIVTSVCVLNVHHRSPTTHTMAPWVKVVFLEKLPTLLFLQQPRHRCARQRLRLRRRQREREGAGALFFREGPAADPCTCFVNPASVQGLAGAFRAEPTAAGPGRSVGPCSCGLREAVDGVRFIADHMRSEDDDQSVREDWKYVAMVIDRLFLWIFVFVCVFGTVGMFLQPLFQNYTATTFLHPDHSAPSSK

[10] = target: Neuronal acetylcholine receptor; alpha2/beta2 (Rattus norvegicus) (UniProt P12389+P12390); assay: Inhibition of rat alpha2beta2 expressed in Xenopus laevis oocytes assessed as acetylcholine-induced channel current response at 10 uM at -70 mV holding potential by two-electrode voltage-clamp assay relative to control; assay type: cell-based; design: scale not given: the % may be the effect or the level left; details: Oocyte
[11] = target: T2, CHRNA1/CHRNB1/CHRNG/CHRND (Rattus norvegicus) (UniProt P25109+P25108+P25110+P18916); assay: Inhibition of rat (alpha1)2betagammadelta expressed in Xenopus laevis oocytes assessed as dissociation rate constant for inhibition of acetylcholine-induced channel current response at -70 mV holding potential by two-electrode voltage-clamp assay; assay type: cell-based; details: Oocyte
[12] = target: Neuronal acetylcholine receptor subunit alpha-7 (Homo sapiens) (UniProt P36544); assay: Inhibition of human alpha7expressed in Xenopus laevis oocytes assessed as acetylcholine-induced channel current response at 10 uM at -70 mV holding potential by two-electrode voltage-clamp assay relative to control; assay type: cell-based; design: scale not given: the % may be the effect or the level left; details: Oocyte
Neuronal acetylcholine receptor subunit alpha-7 (Homo sapiens), sequence (P36544 whole entry): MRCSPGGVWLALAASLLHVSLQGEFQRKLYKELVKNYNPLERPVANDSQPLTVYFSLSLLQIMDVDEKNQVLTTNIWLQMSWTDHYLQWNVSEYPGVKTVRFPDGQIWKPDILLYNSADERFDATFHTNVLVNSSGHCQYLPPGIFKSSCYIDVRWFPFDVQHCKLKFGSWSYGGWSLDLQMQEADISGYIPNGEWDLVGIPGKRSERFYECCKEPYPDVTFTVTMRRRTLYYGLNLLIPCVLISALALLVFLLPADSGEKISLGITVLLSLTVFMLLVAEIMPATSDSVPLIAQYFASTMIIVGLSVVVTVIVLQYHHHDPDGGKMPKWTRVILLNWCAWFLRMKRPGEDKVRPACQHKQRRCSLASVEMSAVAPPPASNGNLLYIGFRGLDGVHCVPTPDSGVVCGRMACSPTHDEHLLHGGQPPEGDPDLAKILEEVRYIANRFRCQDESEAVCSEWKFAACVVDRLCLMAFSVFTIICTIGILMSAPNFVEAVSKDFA

[13] = tested on: Phrenic nerve-diaphragm muscle; assay: Inhibition of muscle contraction in Swiss mouse isolated phrenic nerve hemidiaphragm muscle preparation assessed as reduction of 0.1 Hz stimulation-induced isometric twitch force by measuring time required for 40% recovery of nerve-evoked muscle contraction; assay type: functional
Danio rerio [14] = species on record: Danio rerio; assay: Induction of paralysis in Zebrafish assessed as inhibition of larvae movement movement at 100 uM added into the water and measured over 1 hr by larvae movement tracking analysis relative to control; assay type: functional
[15] = target: Neuronal acetylcholine receptor; alpha2/beta4 (Rattus norvegicus) (UniProt P12389+P12392); assay: Inhibition of rat alpha2beta4 expressed in Xenopus laevis oocytes assessed as acetylcholine-induced channel current response at 10 uM at -70 mV holding potential by two-electrode voltage-clamp assay relative to control; assay type: cell-based; design: scale not given: the % may be the effect or the level left; details: Oocyte
[16] = tested on: Phrenic nerve-diaphragm muscle; assay: Inhibition of muscle contraction in Swiss mouse isolated phrenic nerve hemidiaphragm muscle preparation assessed as reduction of 0.1 Hz stimulation-induced isometric twitch force by measuring time required to block 50% of nerve-evoked muscle contraction; assay type: functional
[17] = target: CHRNA1/CHRNB1/CHRNG/CHRND (Rattus norvegicus, UniProt P18916+P25108+P25109+P25110); assay: Inhibition of rat (alpha1)2betagammadelta expressed in Xenopus laevis oocytes assessed as inhibition of acetylcholine-induced channel current response at -70 mV holding potential by two-electrode voltage-clamp assay; assay type: cell-based, Oocyte
CHRNA1/CHRNB1/CHRNG/CHRND, sequence (P25109 whole entry): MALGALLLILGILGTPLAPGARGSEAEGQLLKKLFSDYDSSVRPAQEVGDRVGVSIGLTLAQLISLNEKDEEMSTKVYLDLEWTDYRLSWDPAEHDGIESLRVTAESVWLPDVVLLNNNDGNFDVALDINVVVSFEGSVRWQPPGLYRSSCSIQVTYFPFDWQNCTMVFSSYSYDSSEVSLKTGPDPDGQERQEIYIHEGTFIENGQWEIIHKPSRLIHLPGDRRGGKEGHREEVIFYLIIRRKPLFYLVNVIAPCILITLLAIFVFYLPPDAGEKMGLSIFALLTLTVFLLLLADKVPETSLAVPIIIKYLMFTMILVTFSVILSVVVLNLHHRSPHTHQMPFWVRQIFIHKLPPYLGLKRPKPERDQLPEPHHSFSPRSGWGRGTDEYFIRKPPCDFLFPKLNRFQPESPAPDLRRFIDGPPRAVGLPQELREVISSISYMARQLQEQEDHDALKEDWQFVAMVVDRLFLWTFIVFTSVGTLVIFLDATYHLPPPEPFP
CHRNA1/CHRNB1/CHRNG/CHRND, sequence (P25108 whole entry): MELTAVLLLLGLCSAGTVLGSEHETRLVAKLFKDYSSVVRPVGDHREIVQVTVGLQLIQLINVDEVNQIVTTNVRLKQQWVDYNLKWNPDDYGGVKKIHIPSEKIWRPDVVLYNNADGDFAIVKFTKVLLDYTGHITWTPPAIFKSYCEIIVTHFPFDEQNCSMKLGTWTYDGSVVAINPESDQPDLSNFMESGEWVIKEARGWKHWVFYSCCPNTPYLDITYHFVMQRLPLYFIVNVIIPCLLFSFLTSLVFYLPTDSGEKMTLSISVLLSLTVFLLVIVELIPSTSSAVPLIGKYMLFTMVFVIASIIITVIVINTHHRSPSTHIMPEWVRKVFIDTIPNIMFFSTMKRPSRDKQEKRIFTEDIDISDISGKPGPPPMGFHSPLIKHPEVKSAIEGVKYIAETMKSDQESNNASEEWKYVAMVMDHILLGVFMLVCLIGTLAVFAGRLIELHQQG
CHRNA1/CHRNB1/CHRNG/CHRND, sequence (P25110 whole entry): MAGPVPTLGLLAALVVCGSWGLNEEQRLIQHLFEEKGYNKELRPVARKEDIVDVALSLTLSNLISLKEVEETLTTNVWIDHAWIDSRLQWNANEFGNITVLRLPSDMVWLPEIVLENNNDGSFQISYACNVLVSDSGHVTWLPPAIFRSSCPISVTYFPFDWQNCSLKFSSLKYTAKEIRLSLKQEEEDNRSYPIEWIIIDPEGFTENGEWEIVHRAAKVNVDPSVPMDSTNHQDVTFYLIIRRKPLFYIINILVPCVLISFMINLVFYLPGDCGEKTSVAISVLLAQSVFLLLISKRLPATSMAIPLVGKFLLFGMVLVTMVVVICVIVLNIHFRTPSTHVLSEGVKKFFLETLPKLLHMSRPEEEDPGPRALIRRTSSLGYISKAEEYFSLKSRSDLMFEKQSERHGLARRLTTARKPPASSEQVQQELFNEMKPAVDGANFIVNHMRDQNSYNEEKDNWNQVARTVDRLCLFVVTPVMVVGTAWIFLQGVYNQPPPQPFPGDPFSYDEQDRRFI
CHRNA1/CHRNB1/CHRNG/CHRND, sequence (P18916 whole entry): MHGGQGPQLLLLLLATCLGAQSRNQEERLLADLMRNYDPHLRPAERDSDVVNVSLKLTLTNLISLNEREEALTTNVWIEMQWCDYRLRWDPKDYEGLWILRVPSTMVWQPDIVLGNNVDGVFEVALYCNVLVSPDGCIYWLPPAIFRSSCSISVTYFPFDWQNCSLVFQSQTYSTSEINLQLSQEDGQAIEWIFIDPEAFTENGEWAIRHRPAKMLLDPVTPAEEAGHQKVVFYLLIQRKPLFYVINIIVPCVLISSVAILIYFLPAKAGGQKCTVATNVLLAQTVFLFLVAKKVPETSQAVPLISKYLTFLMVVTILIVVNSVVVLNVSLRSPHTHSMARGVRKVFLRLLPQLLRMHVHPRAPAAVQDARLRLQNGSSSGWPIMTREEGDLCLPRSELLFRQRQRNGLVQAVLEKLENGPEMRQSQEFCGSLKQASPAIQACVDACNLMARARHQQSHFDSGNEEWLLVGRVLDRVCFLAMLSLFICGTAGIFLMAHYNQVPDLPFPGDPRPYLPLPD

[18] = target: Neuronal acetylcholine receptor; alpha3/beta4 (Rattus norvegicus) (UniProt P04757+P12392); assay: Inhibition of rat alpha3beta4 expressed in Xenopus laevis oocytes assessed as acetylcholine-induced channel current response at 10 uM at -70 mV holding potential by two-electrode voltage-clamp assay relative to control; assay type: cell-based; design: scale not given: the % may be the effect or the level left; details: Oocyte
[19] = target: Nicotinic acetylcholine receptor alpha-1/beta-1/delta/epsilon (Rattus norvegicus, UniProt P09660+P25108+P25109+P25110); assay: Inhibition of rat alpha1beta1epsilondelta expressed in Xenopus laevis oocytes assessed as inhibition of acetylcholine-induced channel current response at -70 mV holding potential by two-electrode voltage-clamp assay relative to control; assay type: cell-based, Oocyte
Nicotinic acetylcholine receptor alpha-1/beta-1/delta/epsilon, sequence (P25109 whole entry): as the sequence (P25109 whole entry) above
Nicotinic acetylcholine receptor alpha-1/beta-1/delta/epsilon, sequence (P25108 whole entry): as the sequence (P25108 whole entry) above
Nicotinic acetylcholine receptor alpha-1/beta-1/delta/epsilon, sequence (P25110 whole entry): as the sequence (P25110 whole entry) above
Nicotinic acetylcholine receptor alpha-1/beta-1/delta/epsilon, sequence (P09660 whole entry): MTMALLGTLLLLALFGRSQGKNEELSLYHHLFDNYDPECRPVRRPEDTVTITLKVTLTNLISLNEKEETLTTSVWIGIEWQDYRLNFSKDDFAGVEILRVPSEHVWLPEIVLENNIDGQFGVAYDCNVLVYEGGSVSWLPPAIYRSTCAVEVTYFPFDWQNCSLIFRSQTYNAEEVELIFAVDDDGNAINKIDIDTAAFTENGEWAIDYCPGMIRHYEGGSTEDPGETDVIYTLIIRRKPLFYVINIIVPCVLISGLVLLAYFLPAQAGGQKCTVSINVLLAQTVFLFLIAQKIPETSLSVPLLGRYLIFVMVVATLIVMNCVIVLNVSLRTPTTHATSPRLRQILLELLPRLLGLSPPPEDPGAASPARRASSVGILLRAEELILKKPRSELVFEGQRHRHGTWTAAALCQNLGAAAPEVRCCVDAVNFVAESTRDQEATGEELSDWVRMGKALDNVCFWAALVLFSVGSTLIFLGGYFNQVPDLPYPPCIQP

[20] = target: Neuronal acetylcholine receptor; alpha4/beta2 (Rattus norvegicus) (UniProt P09483+P12390); assay: Inhibition of rat alpha4beta2 expressed in Xenopus laevis oocytes assessed as acetylcholine-induced channel current response at 10 uM at -70 mV holding potential by two-electrode voltage-clamp assay relative to control; assay type: cell-based; design: scale not given: the % may be the effect or the level left; details: Oocyte
[21] = tested on: Phrenic nerve-diaphragm muscle; assay: as §1, with “twitch tension-time integrals” for “peak amplitude”; assay type: functional, tissue-based; details: time 57.0 min
[22] = tested on: Phrenic nerve-diaphragm muscle; assay: Induction of fading of train-of four repetitive stimulation pattern in Swiss mouse isolated phrenic nerve hemidiaphragm muscle preparation measured at 76% neuromuscular block; assay type: functional, tissue-based
[23] = target: T1, Neuronal acetylcholine receptor; alpha3/beta2 (Rattus norvegicus); assay: Inhibition of rat alpha3beta2 expressed in Xenopus laevis oocytes assessed as wash-out time needed for recovery of ACh-induced current responses at -70 mV holding potential by two-electrode voltage-clamp assay; assay type: cell-based; details: Oocyte
[24] = target: Neuronal acetylcholine receptor; alpha9/alpha10 (Homo sapiens) (UniProt Q9UGM1+Q9GZZ6); assay: Inhibition of human alpha9alpha10 expressed in Xenopus laevis oocytes assessed as acetylcholine-induced channel current response at 10 uM at -70 mV holding potential by two-electrode voltage-clamp assay relative to control; assay type: cell-based; design: scale not given: the % may be the effect or the level left; details: Oocyte
[25] = tested on: Phrenic nerve-diaphragm muscle; assay: Inhibition of muscle contraction in Swiss mouse isolated phrenic nerve hemidiaphragm muscle preparation assessed as reduction of peak amplitude of 0.1 Hz stimulation-induced nerve contraction at 16 nM incubated for 30 mins relative to control; assay type: functional; details: 0.5 h
[26] = target: Nicotinic acetylcholine receptor alpha-1/beta-1/delta/epsilon (Homo sapiens) (UniProt P02708+P11230+Q07001+Q04844); assay: Inhibition of adult human (alpha1)2beta1epsilondelta expressed in Xenopus laevis oocytes assessed as dissociation rate constant for inhibition of acetylcholine-induced channel current response at 1 nM at -70 mV holding potential by two-electrode voltage-clamp assay relative to control; assay type: cell-based; details: Oocyte
[27] = target: T2, CHRNA1/CHRNB1/CHRNG/CHRND (Rattus norvegicus); assay: Inhibition of fetal rat (alpha1)2beta1gammadelta expressed in Xenopus laevis oocytes assessed as dissociation rate constant for inhibition of acetylcholine-induced channel current response at 100 nM at -70 mV holding potential by two-electrode voltage-clamp assay; assay type: cell-based; details: Oocyte
[28] = Mus musculus, Swiss, Phrenic nerve-diaphragm muscle

## C[C@@H]1NC(=O)[C@@H]2CCCN2C(=O)[C@H](Cc2c[nH]cn2)NC(=O)[C@@H]2CSSC[C@@H](C(N)=O)NC(=O)[C@H](CO)NC(=O)[C@H](Cc3ccccc3)NC(=O)[C@H](Cc3c[nH]cn3)NC(=O)[C@H](CCCCN)NC(=O)CNC(=O)[C@H](CSSC[C@H](NC(=O)[C@H](CCCNC(=N)N)NC(=O)CNC(=O)[C@@H](N)CC(N)=O)C(=O)N2)NC1=O (H-NGRCCHPACGKHFSC-NH2; disulfide 4-9, 5-15)
[1]
  half-life at 30 µM: 1.33 h
[2]
  Activity: inactive
Danio rerio [3]
  Activity: Dose-dependent effect
  pIC50: 5.16
[4]
  pIC50: 8.05

## C[C@@H]1NC(=O)[C@H](C)NC(=O)[C@@H]2CSSC[C@@H]3NC(=O)[C@H](CSSC[C@H](NC(=O)[C@H](C)NC(=O)[C@@H]4CCCN4C(=O)[C@H](Cc4c[nH]cn4)NC3=O)C(=O)NCC(=O)N[C@@H](CCCCN)C(=O)N[C@@H](Cc3c[nH]cn3)C(=O)N[C@@H](Cc3ccccc3)C(=O)N[C@@H](CO)C(=O)N2)NC(=O)[C@H](CCCNC(=N)N)NC(=O)CNC(=O)[C@H](CC(N)=O)NC(=O)CNC1=O (cyclo(AAGNGRCCHPACGKHFSC); disulfide 7-12, 8-18)
[5]
  Activity: > 80%
[1]
  half-life at 30 µM: 5.33 h
[6]
  inhibition: Active
[7]
  inhibition: inactive
[8]
  pIC50: 8.06
[9]
  pIC50: 8.89
[10]
  Activity: > 80%
[11]
  K: 0.03 min⁻¹
[12]
  Activity: 65%
[13]
  Time: 32.6 min
Danio rerio [14]
  inhibition in vivo at 100 µM: 20.5%
[2]
  Activity: inactive
[15]
  Activity: > 80%
[16]
  Time: 19 min
[17]
  pIC50: 8.45
[18]
  Activity: > 80%
[19]
  pIC50: 9.74
[20]
  Activity: > 80%
Danio rerio [3]
  Activity: Dose-dependent effect
Danio rerio [3]; Danio rerio, 10 min
  pIC50: 4.24
[21]
  inhibition: inactive
[22]
  Activity: inactive
[23]
  TIME: 0.5 h
[24]
  Activity: > 80%
[25]
  inhibition at 0.016 µM: 85%
[26]
  K: 0.013 min⁻¹
[4]; [28]
  pIC50: 8.06
[27]
  K: 0.03 min⁻¹

## C[C@@H]1NC(=O)CNC(=O)[C@@H]2CSSC[C@@H]3NC(=O)[C@H](CSSC[C@H](NC(=O)[C@H](C)NC(=O)[C@@H]4CCCN4C(=O)[C@H](Cc4c[nH]cn4)NC3=O)C(=O)NCC(=O)N[C@@H](CCCCN)C(=O)N[C@@H](Cc3c[nH]cn3)C(=O)N[C@@H](Cc3ccccc3)C(=O)N[C@@H](CO)C(=O)N2)NC(=O)[C@H](CCCNC(=N)N)NC(=O)CNC(=O)[C@H](CC(N)=O)NC(=O)CNC(=O)[C@H](C)NC1=O (cyclo(AAGNGRCCHPACGKHFSCG); disulfide 7-12, 8-18)
[1]
  half-life at 30 µM: > 8 h
[9]
  pIC50: 7.67
[11]
  K: 0.066 min⁻¹
Danio rerio [14]
  inhibition in vivo at 100 µM: 25.2%
[2]
  Activity: inactive
[17]
  pIC50: 8.06
Danio rerio [3]
  Activity: Dose-dependent effect
Danio rerio [3]; Danio rerio, 10 min
  pIC50: 4.12
[4]; [28]
  pIC50: 7.78

## C[C@@H]1NC(=O)[C@@H]2CSSC[C@@H]3NC(=O)[C@H](CSSC[C@H](NC(=O)[C@H](C)NC(=O)[C@@H]4CCCN4C(=O)[C@H](Cc4c[nH]cn4)NC3=O)C(=O)NCC(=O)N[C@@H](CCCCN)C(=O)N[C@@H](Cc3c[nH]cn3)C(=O)N[C@@H](Cc3ccccc3)C(=O)N[C@@H](CO)C(=O)N2)NC(=O)[C@H](CCCNC(=N)N)NC(=O)CNC(=O)[C@H](CC(N)=O)NC(=O)CNC1=O (cyclo(ACGKHFSCAGNGRCCHP); disulfide 2-14, 8-15)
[1]
  half-life at 30 µM: 7.33 h
[9]
  pIC50: 7.99
[11]
  K: 0.126 min⁻¹
Danio rerio [14]
  inhibition in vivo at 100 µM: 99.8%
[2]
  Activity: inactive
[17]
  pIC50: 8.12
Danio rerio [3]
  Activity: Dose-dependent effect
Danio rerio [3]; Danio rerio, 10 min
  pIC50: 4.92
[4]; [28]
  pIC50: 7.87
